What was measured:
Details in all cases: 72 h
Caco-2 [1] = experiment: cell viability relative to DMSO; higher = less toxic
Calu-3 [2] = experiment: as above
HepG2 [3] = experiment: as above
U2OS [4] = experiment: as above
Vero E6 [5] = experiment: as above
Caco-2 [6] = experiment: relative viability EC50 (midpoint between 100% and the lowest measured viability); higher = less toxic
Calu-3 [7] = experiment: as above
HepG2 [8] = experiment: as above
U2OS [9] = experiment: as above
Vero E6 [10] = experiment: as above
Caco-2 [11] = experiment: drug sensitivity score (DSS) for viability; higher = more toxic; extreme values may be limits of the assay
Calu-3 [12] = experiment: as above
HepG2 [13] = experiment: as above
U2OS [14] = experiment: as above
Vero E6 [15] = experiment: as above

SMILES | cell viability (Caco-2 [1]; 1 nM) | cell viability (Caco-2 [1]; 10 nM) | cell viability (Caco-2 [1]; 100 nM) | cell viability (Caco-2 [1]; 1000 nM) | cell viability (Caco-2 [1]; 10000 nM) | cell viability (Calu-3 [2]; 1 nM) | cell viability (Calu-3 [2]; 10 nM) | cell viability (Calu-3 [2]; 100 nM) | cell viability (Calu-3 [2]; 1000 nM) | cell viability (Calu-3 [2]; 10000 nM) | cell viability (HepG2 [3]; 1 nM) | cell viability (HepG2 [3]; 10 nM) | cell viability (HepG2 [3]; 100 nM) | cell viability (HepG2 [3]; 1000 nM) | cell viability (HepG2 [3]; 10000 nM) | cell viability (U2OS [4]; 1 nM) | cell viability (U2OS [4]; 10 nM) | cell viability (U2OS [4]; 100 nM) | cell viability (U2OS [4]; 1000 nM) | cell viability (U2OS [4]; 10000 nM) | cell viability (Vero E6 [5]; 1 nM) | cell viability (Vero E6 [5]; 10 nM) | cell viability (Vero E6 [5]; 100 nM) | cell viability (Vero E6 [5]; 1000 nM) | cell viability (Vero E6 [5]; 10000 nM) | relative viability EC50 (Caco-2 [6]) | relative viability EC50 (Calu-3 [7]) | relative viability EC50 (HepG2 [8]) | relative viability EC50 (U2OS [9]) | relative viability EC50 (Vero E6 [10]) | drug sensitivity score (Caco-2 [11]) | drug sensitivity score (Calu-3 [12]) | drug sensitivity score (HepG2 [13]) | drug sensitivity score (U2OS [14]) | drug sensitivity score (Vero E6 [15])
C[C@@H]1C(=O)O[C@H]2C[C@@]34[C@H]5C[C@@H](C(C)(C)C)[C@]36[C@@H](OC(=O)[C@@H]6O)O[C@@]4(C(=O)O5)[C@]21O [Ginkgolide A] | 101% | 97.3% | 98.2% | 93.4% | 95.6% | 104% | 103% | 96.4% | 106% | 105% | 101% | 88.5% | 100% | 92.6% | 94.3% | 105% | 98.4% | 102% | 100% | 104% | 104% | 95.1% | 98.9% | 97% | 103% | > 10 µM | > 10 µM | > 10 µM | > 10 µM | > 10 µM | 0 | 0 | 0 | 0 | 0
C[C@H](CCC(=O)O)[C@H]1CC[C@H]2[C@@H]3C[C@H](O)[C@@H]4C[C@H](O)CC[C@]4(C)[C@H]3CC[C@]12C [Hyodeoxycholic acid (HDCA)] | 88.5% | 100% | 99.3% | 101% | 106% | 108% | 103% | 87.8% | 107% | 101% | 95.6% | 102% | 104% | 93.9% | 106% | 95.8% | 103% | 105% | 104% | 104% | 92.3% | 95.4% | 95.2% | 94.3% | 108% | > 10 µM | > 10 µM | > 10 µM | > 10 µM | > 10 µM | 0 | 0 | 0 | 0 | 0
CNC(=O)c1ccc(-c2cnc3ncc(Cc4ccc5ncccc5c4)n3n2)cc1F [INC-280] | 97.9% | 90.7% | 96.6% | 104% | 88.4% | 101% | 103% | 99.9% | 101% | 110% | 89.2% | 100% | 88.8% | 111% | 82.6% | 107% | 95.7% | 99.6% | 98.1% | 102% | 95.7% | 98.4% | 91.5% | 96.1% | 83% | > 10 µM | > 10 µM | > 10 µM | > 10 µM | > 10 µM | 0 | 0 | 0.2 | 0 | 0.3
Cc1cc(C)cc(C(=O)N(C)[C@H](Cc2ccc(-c3ccccc3)cc2)C(=O)N[C@@H](Cc2c[nH]c3ccccc23)C(=O)O)c1 [IRL-2500] | 94% | 96.8% | 96.7% | 97.4% | 101% | 103% | 90.3% | 107% | 92.8% | 96.9% | 92.5% | 106% | 99.4% | 116% | 118% | 96.4% | 95.5% | 101% | 98.5% | 102% | 94.3% | 96.1% | 90.1% | 95.5% | 111% | > 10 µM | > 10 µM | > 10 µM | > 10 µM | > 10 µM | 0 | 0 | 0 | 0 | 0
